In paper PMC4450297, “Screening Active Compounds from Garcinia Species Native to China Reveals Novel Compounds Targeting the STAT/JAK Signaling Pathway” (BioMed Research International, 2015):

Tests used:
Assay in all cases: Cell panel screen (CellTiter-Glo)
Type in all cases: cell-based, human
HPAF-II = HPAF-II (Pancreas), 20 micromolar, 72 hrs
Method in brief: (§1)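 Growth inhibition (%) was determined from luminescence proportional to cellular ATP after cells had been incubated with compound (20 μM final) for 72 h at 37°C, with matched DMSO controls and cell-free wells defining the range.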

A498 = A498 (listed under Lung), 20 micromolar, 72 hrs
Method in brief: as §1

BT-549 = BT-549 (Breast), 20 micromolar, 72 hrs
Method in brief: as §1

MSTO-211-H = MSTO-211-H (Lung), 20 micromolar, 72 hrs
Method in brief: as §1

T47D = T47D (Breast), 20 micromolar, 72 hrs
Method in brief: as §1

C8166 = C8166 (Leukemia), 20 micromolar, 72 hrs
Method in brief: as §1

NCI-H1623 = NCI-H1623 (Lung), 20 micromolar, 72 hrs
Method in brief: as §1

HT-1197 = HT-1197 (Urinary bladder), 20 micromolar, 72 hrs
Method in brief: as §1

RL95 = RL95 (Uterus), 20 micromolar, 72 hrs
Method in brief: as §1

HEC-1-A = HEC-1-A (Uterus), 20 micromolar, 72 hrs
Method in brief: as §1

NCI-H2405 = NCI-H2405 (Lung), 20 micromolar, 72 hrs
Method in brief: as §1

HCC1569 = HCC1569 (Breast), 20 micromolar, 72 hrs
Method in brief: as §1

CW-2 = CW-2 (Colon), 20 micromolar, 72 hrs
Method in brief: as §1

Panc 03.27 = Panc 03.27 (Pancreas), 20 micromolar, 72 hrs
Method in brief: as §1

BT-474 = BT-474 (Breast), 20 micromolar, 72 hrs
Method in brief: as §1

ChaGo-K-1 = ChaGo-K-1 (Lung), 20 micromolar, 72 hrs
Method in brief: as §1

SW13 = SW13 (Adrenal gland), 20 micromolar, 72 hrs
Method in brief: as §1

ZR-75-30 = ZR-75-30 (Breast), 20 micromolar, 72 hrs
Method in brief: as §1

A704 = A704 (Kidney), 20 micromolar, 72 hrs
Method in brief: as §1

NCI-H1770 = NCI-H1770 (Lung), 20 micromolar, 72 hrs
Method in brief: as §1

CCF-STTG1 = CCF-STTG1 (Brain), 20 micromolar, 72 hrs
Method in brief: as §1

NCI-H2347 = NCI-H2347 (Lung), 20 micromolar, 72 hrs
Method in brief: as §1

Bel-7402 = Bel-7402 (Liver), 20 micromolar, 72 hrs
Method in brief: as §1

J82 = J82 (Urinary bladder), 20 micromolar, 72 hrs
Method in brief: as §1

Colo 205 = settings: Colo 205, 20 micromolar, 72 hrs
Method in brief: as §1

TCCSUP = TCCSUP (Urinary bladder), 20 micromolar, 72 hrs
Method in brief: as §1

M059J = M059J (Brain), 20 micromolar, 72 hrs
Method in brief: as §1

HCC1599 = HCC1599 (Breast), 20 micromolar, 72 hrs
Method in brief: as §1

NCI-H524 = NCI-H524 (Lung), 20 micromolar, 72 hrs
Method in brief: as §1

HCC1395 = HCC1395 (Breast), 20 micromolar, 72 hrs
Method in brief: as §1

HGC-27 = HGC-27 (Stomach), 20 micromolar, 72 hrs
Method in brief: as §1

T98G = T98G (Brain), 20 micromolar, 72 hrs
Method in brief: as §1

NCI-H28 = NCI-H28 (Lung), 20 micromolar, 72 hrs
Method in brief: as §1

NCI-H1694 = NCI-H1694 (Lung), 20 micromolar, 72 hrs
Method in brief: as §1

C3A = C3A (Liver), 20 micromolar, 72 hrs
Method in brief: as §1

HCC1937 = HCC1937 (Breast), 20 micromolar, 72 hrs
Method in brief: as §1

Row | Compound | Percent Inhibition (HPAF-II) | Percent Inhibition (A498) | Percent Inhibition (BT-549) | Percent Inhibition (MSTO-211-H) | Percent Inhibition (T47D) | Percent Inhibition (C8166) | Percent Inhibition (NCI-H1623) | Percent Inhibition (HT-1197) | Percent Inhibition (RL95) | Percent Inhibition (HEC-1-A) | Percent Inhibition (NCI-H2405) | Percent Inhibition (HCC1569) | Percent Inhibition (CW-2) | Percent Inhibition (Panc 03.27) | Percent Inhibition (BT-474) | Percent Inhibition (ChaGo-K-1) | Percent Inhibition (SW13) | Percent Inhibition (ZR-75-30) | Percent Inhibition (A704) | Percent Inhibition (NCI-H1770) | other results
1 | Bannaxanthone G [bn-21] | 84% | 60% | 70% | 90% | 64% | 90% | 72% | 91% | 88% | 71% | 80% | 76% | 99% | 95% | 88% | 95% | 92% | 99% | 64% | 94% | Percent Inhibition (CCF-STTG1): 68%; Percent Inhibition (NCI-H2347): 75%; Percent Inhibition (Bel-7402): 93%; Percent Inhibition (J82): 88%; Percent Inhibition (Colo 205): 100%; Percent Inhibition (TCCSUP): 84%; Percent Inhibition (M059J): 94%; Percent Inhibition (HCC1599): 97%; Percent Inhibition (NCI-H524): 100%; Percent Inhibition (HCC1395): 95%; Percent Inhibition (HGC-27): 84%; Percent Inhibition (T98G): 77%; Percent Inhibition (NCI-H28): 73%; Percent Inhibition (NCI-H1694): 100%; Percent Inhibition (C3A): 62%; Percent Inhibition (HCC1937): 92%
2 | CC1(C)C=Cc2c(cc(O)c3c(=O)c4ccc(O)c(O)c4oc23)O1 [gl-18] | 82% | 74% | 86% | 85% | 83% | 92% | 77% | 90% | 94% | 81% | 66% | 81% | 95% | 96% | 92% | 91% | 96% | 95% | 66% | 89% | Percent Inhibition (CCF-STTG1): 81%; Percent Inhibition (NCI-H2347): 84%; Percent Inhibition (Bel-7402): 78%; Percent Inhibition (J82): 88%; Percent Inhibition (Colo 205): 96%; Percent Inhibition (TCCSUP): 85%; Percent Inhibition (M059J): 91%; Percent Inhibition (HCC1599): 92%; Percent Inhibition (NCI-H524): 96%; Percent Inhibition (HCC1395): 94%; Percent Inhibition (HGC-27): 92%; Percent Inhibition (T98G): 91%; Percent Inhibition (NCI-H28): 77%; Percent Inhibition (NCI-H1694): 98%; Percent Inhibition (C3A): 81%; Percent Inhibition (HCC1937): 85%
3 | COc1c(O)c(O)c2c(=O)c3c(CC=C(C)C)c(CC=C(C)C)c(O)c(O)c3oc2c1CC=C(C)C [Compound N-7] | 9% | 13% | -14% | -1% | -9% | 10% | -8% | 13% | -16% | -17% | -7% | 5% | 22% | -24% | -21% | 4% | -14% | -11% | 1% | -6% | Percent Inhibition (CCF-STTG1): 6%; Percent Inhibition (NCI-H2347): -18%; Percent Inhibition (Bel-7402): 15%; Percent Inhibition (J82): 17%; Percent Inhibition (Colo 205): 9%; Percent Inhibition (TCCSUP): 18%; Percent Inhibition (M059J): 10%; Percent Inhibition (HCC1599): 8%; Percent Inhibition (NCI-H524): -30%; Percent Inhibition (HCC1395): 22%; Percent Inhibition (HGC-27): 0%; Percent Inhibition (T98G): 17%; Percent Inhibition (NCI-H28): 21%; Percent Inhibition (NCI-H1694): 25%; Percent Inhibition (C3A): 24%; Percent Inhibition (HCC1937): -5%
4 | CC1(C)C=Cc2cc3c(=O)c4c(O)cc(O)cc4oc3c(O)c2O1 [Go-11] | 18% | 37% | 46% | 66% | 35% | 71% | -10% | 39% | 72% | 38% | 3% | 41% | 61% | 39% | 31% | 75% | 24% | 62% | 24% | 38% | Percent Inhibition (CCF-STTG1): 44%; Percent Inhibition (NCI-H2347): 10%; Percent Inhibition (Bel-7402): 16%; Percent Inhibition (J82): 52%; Percent Inhibition (Colo 205): 11%; Percent Inhibition (TCCSUP): 43%; Percent Inhibition (M059J): 78%; Percent Inhibition (HCC1599): 49%; Percent Inhibition (NCI-H524): 83%; Percent Inhibition (HCC1395): 68%; Percent Inhibition (HGC-27): 54%; Percent Inhibition (T98G): 68%; Percent Inhibition (NCI-H28): 33%; Percent Inhibition (NCI-H1694): 73%; Percent Inhibition (C3A): 19%; Percent Inhibition (HCC1937): 21%
5 | CC(C)=CCc1c(O)cc2oc3ccc(O)cc3c(=O)c2c1O [Ge-1] | 28% | 54% | 20% | 44% | 45% | 9% | 9% | 50% | 37% | 26% | 7% | 52% | 62% | 43% | 30% | 44% | 57% | 81% | 34% | 13% | Percent Inhibition (CCF-STTG1): 43%; Percent Inhibition (NCI-H2347): 32%; Percent Inhibition (Bel-7402): 19%; Percent Inhibition (J82): 38%; Percent Inhibition (Colo 205): 29%; Percent Inhibition (TCCSUP): 28%; Percent Inhibition (M059J): 24%; Percent Inhibition (HCC1599): 54%; Percent Inhibition (NCI-H524): 42%; Percent Inhibition (HCC1395): 55%; Percent Inhibition (HGC-27): 54%; Percent Inhibition (T98G): 46%; Percent Inhibition (NCI-H28): 23%; Percent Inhibition (NCI-H1694): 49%; Percent Inhibition (C3A): 32%; Percent Inhibition (HCC1937): 11%
